One may read the IC50 as the concentration that gives 50% inhibition. By melting point is commonly meant the temperature, or range, at which the solid turns liquid.

We go through 2 compounds from publication PMC9073595, “Synthesis, human topoisomerase IIα inhibitory properties and molecular modeling studies of anti-proliferative curcumin mimics” (RSC Advances, 2019).

Series [1] has as its system HCT116 (colon) carcinoma cell line. As to the kind of experiment: MTT anti-proliferative assay, HCT116. The conditions noted are these: Homo sapiens, HCT-116, 72 h; read-out: IC50, μM ± SD, HCT116. It counts as cell-based. (Tetrazolium dyes change colour on reduction, which living cells bring about.)
Series [2] deals with MCF7 (breast) carcinoma cell line. As to the kind of experiment: MTT anti-proliferative assay, MCF7. The note with it: Homo sapiens, MCF7, 72 h; read-out: IC50, μM ± SD, MCF7. It counts as cell-based.
The subject of series [3] is A431 (squamous skin) carcinoma cell line. The series is described as follows: MTT anti-proliferative assay, A431. Type of series: cell-based. The note with it: Homo sapiens, A-431, 72 h; read-out: IC50, μM ± SD, A431.
Series [4] has as its system RPE1 (normal human immortalized retinal pigment epithelial cell line). The series is described as follows: MTT assay on normal cells, RPE1. Type of series: cell-based. The note with it: RPE-1, RPE1 normal (non-cancer) cell line, read-out: IC50, μM ± SD, RPE1. How it is done: In-vitro antitumor screening
The targeted piperidinecarboxamides 24‒51 were screened for their antitumor properties against HCT116 (colon), MCF7 (breast) and A431 (squamous skin) carcinoma cell lines by the standard mitochondrial dependent reduction of yellow MTT [3-(4,5-dimethylthiazol-2-yl)-2,5-diphenyl-tetrazolium bromide] to purple formazan technique.11 Cells were suspended in McCoy’s 5A medium for HCT116, DMEM for MCF-7 and A431 in addition to 1% antibiotic–antimycotic mixture (10000 μg ml-1 potassium penicillin, 10000 μg ml-1 streptomycin sulfate and 25 μg ml-1 amphotericin B), 10% fetal bovine serum and 1% L-glutamine at 37 °C, under 5% CO2 and 95% humidity. Cells were seeded at concentration of 30000 cells per well in fresh complete growth medium in 96-well tissue culture microtiter plates for 24 h. Media was aspirated, fresh complete medium was added and cells were incubated with different concentrations of the tested compound to give a final concentration of [50, 25, 12.5 and 6.25 μM ([…] and 0.375 μM for the high potent analogues)]. 0.5% DMSO was used as negative control and 5-fluorouracil was used as positive control (standard reference). Triplicate wells were prepared for each individual dose. After 72 h of incubation, medium was aspirated, 40 μl MTT salt (2.5 mg ml-1) were added to each well and incubated for further 4 h at 37 °C.
To stop the reaction and dissolve the formed crystals, 150 μl of 10% sodium dodecyl sulfate (SDS) in deionized water were added to each well and incubated overnight at 37 °C. The absorbance was then measured at 570 nm and a reference wavelength of 595 nm.
Data were collected as mean values for experiments performed in triplicates for each individual dose which had been measured by MTT assay. Control experiments did […]
survival was calculated according to equ. (1).
Surviving fraction = … . (1)
The synthesized compounds 24‒51 were also tested against RPE1 (normal human immortalized retinal pigment epithelial cell line) cell to determine the toxicity/selectivity […]
towards normal cells relative to the carcinoma cell lines utilized. The IC50 (concentration […]
was determined using Graph-Pad PRISM version-5 software. Statistical calculations for determination of the mean and standard error values were determined by SPSS 16 […]
8:1 which is the ratio between the data points and the number of QSAR descriptor).
Human DNA topoisomerase IIα inhibitory properties

For series [5], the target named is T1, human DNA topoisomerase IIα (Homo sapiens, UniProt P11388).
T1 construct: purchased TopoGEN, Inc
T1 sequence (P11388 whole entry): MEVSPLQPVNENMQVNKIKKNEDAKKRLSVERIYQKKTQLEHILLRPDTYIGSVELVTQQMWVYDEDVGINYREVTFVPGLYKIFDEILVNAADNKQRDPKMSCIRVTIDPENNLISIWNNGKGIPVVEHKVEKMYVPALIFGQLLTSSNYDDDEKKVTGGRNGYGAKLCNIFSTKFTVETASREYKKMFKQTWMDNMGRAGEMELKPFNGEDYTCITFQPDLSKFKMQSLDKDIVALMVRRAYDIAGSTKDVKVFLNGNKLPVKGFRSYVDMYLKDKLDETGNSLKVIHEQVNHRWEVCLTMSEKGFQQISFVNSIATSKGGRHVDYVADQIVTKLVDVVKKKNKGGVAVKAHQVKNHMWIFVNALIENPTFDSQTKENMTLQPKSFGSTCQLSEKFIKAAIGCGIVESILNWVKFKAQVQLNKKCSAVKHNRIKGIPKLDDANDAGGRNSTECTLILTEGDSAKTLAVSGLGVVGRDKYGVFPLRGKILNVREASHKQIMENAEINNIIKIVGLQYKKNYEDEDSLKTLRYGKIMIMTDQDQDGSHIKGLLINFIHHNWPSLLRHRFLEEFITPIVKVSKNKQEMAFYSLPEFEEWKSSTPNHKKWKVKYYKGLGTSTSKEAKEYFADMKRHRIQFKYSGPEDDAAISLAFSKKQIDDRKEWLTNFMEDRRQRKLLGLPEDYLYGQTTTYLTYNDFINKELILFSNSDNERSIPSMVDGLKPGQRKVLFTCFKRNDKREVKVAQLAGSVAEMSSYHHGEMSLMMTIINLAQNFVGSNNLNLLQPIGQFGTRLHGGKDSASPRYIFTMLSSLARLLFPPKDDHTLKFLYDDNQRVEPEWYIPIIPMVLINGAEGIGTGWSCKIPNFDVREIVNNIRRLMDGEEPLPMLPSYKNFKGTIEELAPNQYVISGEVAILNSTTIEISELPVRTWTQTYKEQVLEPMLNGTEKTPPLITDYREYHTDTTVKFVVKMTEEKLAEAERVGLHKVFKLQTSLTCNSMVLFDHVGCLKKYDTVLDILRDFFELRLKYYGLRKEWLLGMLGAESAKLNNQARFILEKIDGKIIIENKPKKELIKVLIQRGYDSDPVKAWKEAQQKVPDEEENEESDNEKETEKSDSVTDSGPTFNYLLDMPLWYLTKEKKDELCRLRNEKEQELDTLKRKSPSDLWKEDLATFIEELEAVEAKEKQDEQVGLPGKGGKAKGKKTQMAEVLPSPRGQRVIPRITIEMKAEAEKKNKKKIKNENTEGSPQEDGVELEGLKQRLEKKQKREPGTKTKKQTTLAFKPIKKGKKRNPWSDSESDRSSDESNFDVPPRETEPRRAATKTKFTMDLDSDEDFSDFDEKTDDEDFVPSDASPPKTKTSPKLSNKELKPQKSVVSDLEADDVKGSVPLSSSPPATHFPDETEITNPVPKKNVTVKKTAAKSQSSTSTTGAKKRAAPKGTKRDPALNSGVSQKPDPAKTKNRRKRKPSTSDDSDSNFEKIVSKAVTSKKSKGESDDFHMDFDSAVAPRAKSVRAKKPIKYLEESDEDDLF
The series is described as follows: Human DNA topoisomerase IIα activity assay (TopoGEN kit, plasmid based). Type of series: biochemical.

A value given as a limit tells only on which side of the number the result lay.

Consider `COc1ccc(/C=C2\CN(C(=O)NCc3ccccc3)C/C(=C\c3ccc(OC)cc3)C2=O)cc1` [Compound 47, N-Benzyl-3,5-bis[(E)-4-methoxybenzylidene]-4-oxopiperidine-1-carboxamide], for which the melting point was in the range of 177 to 179 °C. Also, the IC50 in series [1] came to 1.29 ± 0.19 µM. Moreover, the half-maximal inhibitory concentration (IC50) in series [2] was found to be 4.89 ± 0.25 µM. Also, the half-maximal inhibitory concentration (IC50) in series [3] came out at 7.98 ± 1.34 µM. Besides, the half-inhibitory concentration (IC50) in series [4] was more than 50 µM. For the same compound, the IC50 in series [5] turned out to be 33 ± 1.28 µM.
Turning to `CCNC(=O)N1C/C(=C\c2ccccc2)C(=O)/C(=C/c2ccccc2)C1` [Compound 27, 3,5-Di[(E)-benzylidene]-N-ethyl-4-oxopiperidine-1-carboxamide], the melting point is 172 to 174 °C. Further, the IC50 in series [1] was 1.61 ± 0.14 µM. In addition, the half-inhibitory concentration (IC50) in series [2] is 2.95 ± 0.24 µM. In addition, the IC50 in series [3] is 2.56 ± 0.29 µM. Besides, the IC50 in series [4] is more than 50 µM. In series [5], this compound gave an IC50 of 33.6 ± 1.3 µM.
